How the values were obtained:
[1] = 25° C.; cited from earlier work
[2] = test system: alkaline phosphatase, Type VII-S from Bovine Intestinal Mucosa; experiment: Enzymatic triggering of chemiluminescence with alkaline phosphatase (bovine); type: biochemical; conditions: 2-amino-2-methyl-1-propanol buffer pH 10.3, 37° C., 10 μL enzyme suspension
Procedure: A cuvette containing 3 mL of a buffer solution of 2-amino-2-methyl-1-propanol (Sigma Chemical Co., pH=10.3, 1.5M) was placed in the black box at 37° C. A portion (200 μL) of the dioxetane stock solution (6d in CH2 Cl2) was added to this buffer solution. Subsequent addition of 10 μL of an alkaline phosphatase suspension [Sigma, Type VII-S from Bovine Intestinal Mucosa, suspension in 3.2M (NH4)2 SO4 ] gave rise to chemiluminescence over a period of approximately 2-3 min indicating the enzymatic triggering of the dioxetane.

| SMILES | rate of decomposition relative to protonated form (X=OH) [1] | period of chemiluminescence [2] [min] |
| --- | --- | --- |
| Oc1ccc(C23OCCOC2(c2ccccc2)OO3)cc1 (centres unmarked) [deprotonated dioxetane (X=O^-)] | 5.7×10^6 times |  |
| O=P(O)(O)Oc1ccc2c(c1)Oc1ccccc1C21OOC12C1CC3CC(C1)CC2C3 (centres unmarked) [Dioxetane 6d, Dispiro[adamantane-2,3'-[1,2]dioxetane-4',9"-(3-phosphate-9H-xanthene]] |  | 2 to 3 |
